The supplement of paper PMC13380429

Tests used:
Settings in all cases: 72 h
U2OS [1] = test: relative viability EC50 (midpoint between 100% and the lowest measured viability); higher = less toxic
Caco-2 [2] = test: as above
Calu-3 [3] = test: as above
U2OS [4] = test: cell viability relative to DMSO; higher = less toxic
Caco-2 [5] = test: as above
Vero E6 [6] = test: as above
Calu-3 [7] = test: as above
HepG2 [8] = test: as above
U2OS [9] = test: drug sensitivity score (DSS) for viability; higher = more toxic; extreme values may be limits of the assay
Caco-2 [10] = test: as above
Vero E6 [11] = test: as above
Calu-3 [12] = test: as above
HepG2 [13] = test: as above
HepG2 [14] = test: relative viability EC50 (midpoint between 100% and the lowest measured viability); higher = less toxic

Row | Compound | relative viability EC50 (U2OS [1]) [µM] | relative viability EC50 (Caco-2 [2]) [µM] | relative viability EC50 (Calu-3 [3]) [µM] | cell viability (U2OS [4]; 1 nM) [%] | cell viability (U2OS [4]; 10 nM) [%] | cell viability (U2OS [4]; 100 nM) [%] | cell viability (U2OS [4]; 1000 nM) [%] | cell viability (U2OS [4]; 10000 nM) [%] | cell viability (Caco-2 [5]; 1 nM) [%] | cell viability (Caco-2 [5]; 10 nM) [%] | cell viability (Caco-2 [5]; 100 nM) [%] | cell viability (Caco-2 [5]; 1000 nM) [%] | cell viability (Caco-2 [5]; 10000 nM) [%] | cell viability (Vero E6 [6]; 1 nM) [%] | cell viability (Vero E6 [6]; 10 nM) [%] | cell viability (Vero E6 [6]; 100 nM) [%] | cell viability (Vero E6 [6]; 1000 nM) [%] | cell viability (Vero E6 [6]; 10000 nM) [%] | cell viability (Calu-3 [7]; 1 nM) [%] | cell viability (Calu-3 [7]; 10 nM) [%] | cell viability (Calu-3 [7]; 100 nM) [%] | cell viability (Calu-3 [7]; 1000 nM) [%] | cell viability (Calu-3 [7]; 10000 nM) [%] | cell viability (HepG2 [8]; 1 nM) [%] | cell viability (HepG2 [8]; 10 nM) [%] | cell viability (HepG2 [8]; 100 nM) [%] | cell viability (HepG2 [8]; 1000 nM) [%] | cell viability (HepG2 [8]; 10000 nM) [%] | drug sensitivity score (U2OS [9]) | drug sensitivity score (Caco-2 [10]) | drug sensitivity score (Vero E6 [11]) | drug sensitivity score (Calu-3 [12]) | drug sensitivity score (HepG2 [13]) | relative viability EC50 (HepG2 [14]) [µM]
1 | COc1ccc(CCc2nc3cc(-c4c(C)noc4C)ccc3n2C[C@H](C)N2CCOCC2)cc1Cl [SGC-CBP30] | > 10 | > 10 | > 10 | 94.7 | 95.5 | 102 | 98.7 | 79.3 | 93.5 | 97.2 | 106 | 87.9 | 76.8 | 89.8 | 97.6 | 89.5 | 94.5 | 53.9 | 99.4 | 102 | 88.3 | 90.9 | 86.4 | 90.4 | 105 | 93.6 | 94.9 | 70.4 | 0.8 | 2.2 | 3.3 | 1.7 | 2.1 | 
2 | Cc1c(C(=O)N2CCOc3ccc(-c4ccc(N)nc4)cc3C2)ccc(S(C)(=O)=O)c1F [XL388] |  | 1.2 | 1.04 | 102 | 101 | 102 | 98.3 | 50.2 | 115 | 105 | 103 | 77.8 | 43 | 110 | 108 | 103 | 95.6 | 66.7 | 102 | 104 | 103 | 68.5 | 33.7 | 110 | 115 | 99.5 | 92.5 | 39 | 2.8 | 6.1 | 2.3 | 7.7 | 4.6 | 2.16
3 | CC(=O)Nc1ccc(CC(=O)O)cc1 [actarit] | > 10 | > 10 | > 10 | 98.1 | 101 | 94.8 | 103 | 96.4 | 96 | 94 | 93.7 | 99.9 | 96 |  |  |  |  |  | 105 | 104 | 117 | 107 | 97.8 |  |  |  |  |  | 0 | 0 |  | 0 |  | 
4 | Cc1c(N)nc([C@H](CC(N)=O)NC[C@H](N)C(N)=O)nc1C(=O)N[C@H](C(=O)N[C@H](C)[C@@H](O)[C@H](C)C(=O)N[C@H](C(=O)NCCc1nc(-c2nc(C(=O)NCCC[S+](C)C)cs2)cs1)[C@@H](C)O)[C@@H](OC1OC(CO)C(O)C(O)C1OC1OC(CO)C(O)C(OC(N)=O)C1O)c1cnc[nH]1 (stereo partly specified) [bleomycin] |  | > 10 | 0.536 | 97 | 101 | 93.5 | 88.4 | 55.6 | 98.9 | 93.8 | 92.3 | 89.5 | 76.8 | 97.4 | 103 | 97.5 | 75.5 | 60 | 102 | 91.8 | 94.7 | 66.2 | 49.8 | 93.4 | 93.7 | 95.8 | 66.2 | 50.8 | 3.8 | 1.7 | 4.8 | 6.9 | 6.8 | 
5 | NS(=O)(=O)c1ccc(C(=O)O)cc1 [carzenide] |  | > 10 | > 10 |  |  |  |  |  | 106 | 96.1 | 112 | 106 | 96.9 |  |  |  |  |  | 106 | 101 | 93.4 | 100 | 94.2 | 97.6 | 99.8 | 102 | 102 | 94.9 |  | 0 |  | 0 | 0 | > 10
6 | CCOP(=S)(OCC)Oc1ccc2c(C)c(Cl)c(=O)oc2c1 [coumophos] |  |  |  |  |  |  |  |  |  |  |  |  |  |  |  |  |  |  |  |  |  |  |  |  |  |  |  |  | 0 |  | 0 | 0 | 0 | 
7 | CC(=O)C1=C(O)[C@@H]2[C@H]3c4c[nH]c5cccc(c45)C[C@H]3C(C)(C)N2C1=O [cyclopiazonic-acid] | > 10 | > 10 | > 10 | 102 | 100 | 100 | 96.2 | 86.1 | 99.9 | 106 | 107 | 106 | 81.9 | 100 | 96.5 | 94.3 | 95.3 | 65.6 | 105 | 98.1 | 102 | 95.7 | 98.8 | 110 | 105 | 103 | 97.2 | 64.3 | 0.4 | 0.3 | 2.4 | 0 | 2.1 | 
8 | O=C(NO)c1ccc(O)c(O)c1 [didox] |  | > 10 | > 10 |  |  |  |  |  | 101 | 96.9 | 100 | 86.7 | 104 |  |  |  |  |  | 111 | 110 | 96.6 | 103 | 107 | 102 | 102 | 93.3 | 118 | 93.2 |  | 0 |  | 0 | 0 | > 10
9 | CCS(=O)(=O)c1ccc2oc(-c3ccc4ccccc4c3)nc2c1 [ezutromid] | > 10 | > 10 |  | 101 | 97.7 | 105 | 97.4 | 97.2 | 103 | 89 | 91.4 | 91.8 | 90.2 |  |  |  |  |  |  |  |  |  |  | 99.8 | 121 | 102 | 102 | 94.3 | 0 | 0.7 |  |  | 0 | > 10
10 | NS(=O)(=O)c1cc2c(cc1Cl)NCNS2(=O)=O [hydrochlorothiazide] |  |  |  |  |  |  |  |  |  |  |  |  |  |  |  |  |  |  |  |  |  |  |  |  |  |  |  |  | 0 |  | 0 | 0 |  | 
11 | OCCOCCN1CCN(C(c2ccccc2)c2ccc(Cl)cc2)CC1 (stereo unspecified) [hydroxyzine] | > 10 | > 10 | > 10 | 97.9 | 99.8 | 96.8 | 100 | 93.8 | 94.2 | 101 | 106 | 101 | 94 |  |  |  |  |  | 101 | 115 | 93.3 | 106 | 96.7 | 101 | 96.4 | 104 | 108 | 105 | 0 | 0 |  | 0 | 0 | > 10
12 | Cc1cc(C)c(S(=O)(=O)Nc2cccc(C(F)(F)F)c2)c(C)c1 [m-3M3FBS] | > 10 | > 10 | > 10 | 101 | 97 | 100 | 103 | 100 | 111 | 98.8 | 108 | 98.2 | 106 |  |  |  |  |  | 94.5 | 102 | 95.8 | 98.9 | 99.4 | 101 | 98.9 | 93 | 88.8 | 90.6 | 0 | 0 |  | 0 | 0.4 | > 10
13 | NCc1ccc(S(N)(=O)=O)cc1 [mafenide] |  | > 10 | > 10 |  |  |  |  |  | 106 | 98.5 | 97.7 | 103 | 98.1 |  |  |  |  |  | 100 | 103 | 98.1 | 94.5 | 96.1 | 94.1 | 102 | 99.9 | 101 | 95.7 |  | 0 |  | 0 | 0 | > 10
14 | CS(=O)(=O)Nc1ccc([N+](=O)[O-])cc1Oc1ccccc1 [nimesulide] |  |  |  |  |  |  |  |  |  |  |  |  |  |  |  |  |  |  |  |  |  |  |  |  |  |  |  |  | 0 |  | 0 | 0 | 0 | 
15 | NC(=O)c1cccc2cn(-c3ccc([C@@H]4CCCNC4)cc3)nc12 [niraparib] | > 10 | > 10 | > 10 | 101 | 95.4 | 101 | 97.3 | 106 | 92.7 | 106 | 89.9 | 96.4 | 88.1 | 102 | 102 | 102 | 95.8 | 73 | 97 | 104 | 110 | 106 | 97.6 | 83.9 | 109 | 99.4 | 95.4 | 62.9 | 0 | 0 | 1.7 | 0 | 2.5 | 
16 | CN(C)CCC(c1ccccc1)c1ccccn1 (stereo unspecified) [pheniramine] | > 10 | > 10 | > 10 | 99.9 | 98.8 | 102 | 97.6 | 109 | 98.1 | 96.6 | 93.6 | 91.6 | 101 | 91.4 | 57.3 | 101 | 77.9 | 79.5 | 105 | 95.3 | 99 | 94.7 | 102 | 96.4 | 99.8 | 102 | 103 | 101 | 0 | 0 | 5.7 | 0 | 0 | > 10
17 | Cc1cc2c(cc1CC(=O)c1sccc1S(=O)(=O)Nc1onc(C)c1Cl)OCO2 [sitaxentan] | > 10 | > 10 |  | 99.6 | 99.6 | 98.9 | 101 | 101 | 114 | 98 | 102 | 100 | 108 |  |  |  |  |  |  |  |  |  |  |  |  |  |  |  | 0 | 0 |  |  |  | 
18 | CC(=O)Nc1ccc(C(=O)Nc2ccccc2N)cc1 [tacedinaline] | 1.91 |  | 1.14 | 99 | 103 | 95.1 | 90.7 | 43.1 | 97.3 | 95.2 | 93.4 | 99.9 | 52.7 | 99 | 104 | 97.9 | 92.8 | 54.7 | 101 | 99.8 | 97.1 | 74.5 | 42.3 | 104 | 85.5 | 98 | 74.4 | 40.8 | 4.6 | 2.5 | 3.5 | 6.1 | 6.3 | 1.15
19 | CC(=O)OC[C@H]1O[C@@H](n2ccc(=O)[nH]c2=O)[C@H](OC(C)=O)[C@@H]1OC(C)=O [uridine-triacetate] |  | > 10 |  |  |  |  |  |  | 101 | 110 | 114 | 97.2 | 115 |  |  |  |  |  |  |  |  |  |  | 106 | 113 | 106 | 109 | 95.4 |  | 0 |  |  | 0 | > 10
